# Data as given in patent US20200331925A1, “HETEROCYCLIC COMPOUNDS FOR THE TREATMENT OF ABNORMAL CELLULAR PROLIFERATION” (G1 Therapeutics, Inc., priority 2018, published 2020).
# How the values were obtained:
# Assay type in all cases: biochemical
# [1] = target: CDK1/Cyclin B1 (Homo sapiens, UniProt P06493); assay: CDK1/Cyclin B1 kinase assay (Nanosyn, Caliper microfluidic); conditions: 12-point dose-response, ATP at Km (40 μM), 3 hr
# Description: (§1) Selected compounds disclosed herein were tested in kinase assays by Nanosyn (Santa Clara, Calif.) to determine their inhibitory effect on selected CDKs. The assays were performed using microfluidic kinase detection technology (Caliper Assay Platform). The compounds were tested in 12-point dose-response format in singlicate at Kmfor ATP. Phosphoacceptor substrate peptide concentration used was 1 μM for all assays and Staurosporine was used as the reference compound for all assays. Specifics of each assay are as described below: CDK1/Cyclin B1: Enzyme concentration: 0.08 nM; ATP concentration: 40 μM; Incubation time: 3 hr.
# [2] = target: CDK2/Cyclin A (Homo sapiens, UniProt P24941); assay: CDK2/Cyclin A kinase assay (Nanosyn, Caliper microfluidic); conditions: 12-point dose-response, ATP at Km (50 μM), 3 hr
# Description: as §1, with “CDK2/Cyclin A:” for “CDK1/Cyclin B1:”, “0.1” for “0.08”, “50” for “40”
# [3] = target: CDK2/Cyclin E (Homo sapiens, UniProt P24941); assay: CDK2/Cyclin E kinase assay (Nanosyn, Caliper microfluidic); conditions: 12-point dose-response, ATP at Km (100 μM), 3 hr
# Description: as §1, with “CDK2/Cyclin E:” for “CDK1/Cyclin B1:”, “0.15” for “0.08”, “100” for “40”
# [4] = target: CDK3/Cyclin E (Homo sapiens, UniProt Q00526); assay: CDK3/Cyclin E kinase assay (Nanosyn, Caliper microfluidic); conditions: 12-point dose-response, ATP at Km (400 μM), 3 hr
# Description: as §1, with “CDK3/Cyclin E:” for “CDK1/Cyclin B1:”, “1” for “0.08”, “400” for “40”
# [5] = target: CDK4/Cyclin D1 (Homo sapiens, UniProt P11802); assay: CDK4/Cyclin D1 kinase assay (Nanosyn, Caliper microfluidic); conditions: 12-point dose-response, ATP at Km (200 μM), 3 hr; Table 4
# Description: as §1, with “CDK4/Cyclin D1:” for “CDK1/Cyclin B1:”, “1” for “0.08”, “200” for “40”
# [6] = target: CDK5/p35 (Homo sapiens, UniProt Q00535); assay: CDK5/p35 kinase assay (Nanosyn, Caliper microfluidic); conditions: 12-point dose-response, ATP at Km (20 μM), 3 hr
# Description: as §1, with “CDK5/p35:” for “CDK1/Cyclin B1:”, “0.05” for “0.08”, “20” for “40”
# [7] = target: CDK5/p25 (Homo sapiens, UniProt Q00535); assay: CDK5/p25 kinase assay (Nanosyn, Caliper microfluidic); conditions: 12-point dose-response, ATP at Km (20 μM), 3 hr
# Description: as §1, with “CDK5/p25:” for “CDK1/Cyclin B1:”, “0.1” for “0.08”, “20” for “40”
# [8] = target: CDK6/Cyclin D3 (Homo sapiens, UniProt Q00534); assay: CDK6/Cyclin D3 kinase assay (Nanosyn, Caliper microfluidic); conditions: 12-point dose-response, ATP at Km (300 μM), 3 hr
# Description: as §1, with “CDK6/Cyclin D3:” for “CDK1/Cyclin B1:”, “2” for “0.08”, “300” for “40”
# [9] = target: CDK7/Cyclin H (Homo sapiens, UniProt P50613); assay: CDK7/Cyclin H kinase assay (Nanosyn, Caliper microfluidic); conditions: 12-point dose-response, ATP at Km (50 μM), 17 hr
# Description: as §1, with “CDK7/Cyclin H:” for “CDK1/Cyclin B1:”, “10” for “0.08”, “50” for “40”, “17” for “3”
# [10] = target: CDK9/Cyclin T (Homo sapiens, UniProt P50750); assay: CDK9/Cyclin T kinase assay (Nanosyn, Caliper microfluidic); conditions: 12-point dose-response, ATP at Km (10 μM), 17 hr; Table 5
# Description: as §1, with “[…]:” for “CDK1/Cyclin B1:”, “5” for “0.08”, “10” for “40”, “17” for “3”
# Sequence of CDK4/Cyclin D1 (P11802 whole entry): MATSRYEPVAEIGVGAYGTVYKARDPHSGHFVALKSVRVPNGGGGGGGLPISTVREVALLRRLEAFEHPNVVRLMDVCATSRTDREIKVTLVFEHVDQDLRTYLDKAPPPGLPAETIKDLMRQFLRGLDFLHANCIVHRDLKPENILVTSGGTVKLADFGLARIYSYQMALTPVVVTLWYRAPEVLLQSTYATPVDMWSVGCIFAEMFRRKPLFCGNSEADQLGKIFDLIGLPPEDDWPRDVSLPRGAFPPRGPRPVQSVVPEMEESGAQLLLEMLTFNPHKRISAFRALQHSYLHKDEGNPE
# Sequence of CDK4/Cyclin D1 (P24385 whole entry partner): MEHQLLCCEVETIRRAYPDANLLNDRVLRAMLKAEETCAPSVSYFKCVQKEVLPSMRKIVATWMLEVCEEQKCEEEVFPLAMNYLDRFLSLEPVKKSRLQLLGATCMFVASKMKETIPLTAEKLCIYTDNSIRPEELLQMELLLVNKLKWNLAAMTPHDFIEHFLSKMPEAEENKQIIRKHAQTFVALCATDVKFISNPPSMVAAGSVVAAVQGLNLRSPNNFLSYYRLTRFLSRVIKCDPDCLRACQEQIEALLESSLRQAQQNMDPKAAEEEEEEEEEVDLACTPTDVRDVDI
# Sequence of CDK7/Cyclin H (P50613 whole entry): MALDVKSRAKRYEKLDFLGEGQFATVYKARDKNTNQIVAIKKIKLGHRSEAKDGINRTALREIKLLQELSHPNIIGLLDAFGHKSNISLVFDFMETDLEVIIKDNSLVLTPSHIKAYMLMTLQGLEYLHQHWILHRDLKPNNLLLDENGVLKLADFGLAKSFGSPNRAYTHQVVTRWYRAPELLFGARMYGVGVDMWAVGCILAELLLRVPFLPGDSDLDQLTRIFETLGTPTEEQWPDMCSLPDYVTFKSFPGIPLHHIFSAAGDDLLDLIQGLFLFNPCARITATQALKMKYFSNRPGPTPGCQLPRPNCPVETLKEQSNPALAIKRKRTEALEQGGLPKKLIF
# Sequence of CDK7/Cyclin H (P51946 whole entry partner): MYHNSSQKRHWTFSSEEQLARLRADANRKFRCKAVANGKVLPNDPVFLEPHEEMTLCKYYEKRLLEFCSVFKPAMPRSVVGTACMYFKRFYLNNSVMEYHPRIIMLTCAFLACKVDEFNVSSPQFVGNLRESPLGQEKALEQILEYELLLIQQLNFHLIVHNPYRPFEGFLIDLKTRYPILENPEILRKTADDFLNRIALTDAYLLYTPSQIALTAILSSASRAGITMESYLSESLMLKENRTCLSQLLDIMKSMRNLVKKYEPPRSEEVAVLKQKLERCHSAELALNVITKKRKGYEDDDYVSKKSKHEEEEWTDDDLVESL
# Sequence of CDK7/Cyclin H (P51948 whole entry partner): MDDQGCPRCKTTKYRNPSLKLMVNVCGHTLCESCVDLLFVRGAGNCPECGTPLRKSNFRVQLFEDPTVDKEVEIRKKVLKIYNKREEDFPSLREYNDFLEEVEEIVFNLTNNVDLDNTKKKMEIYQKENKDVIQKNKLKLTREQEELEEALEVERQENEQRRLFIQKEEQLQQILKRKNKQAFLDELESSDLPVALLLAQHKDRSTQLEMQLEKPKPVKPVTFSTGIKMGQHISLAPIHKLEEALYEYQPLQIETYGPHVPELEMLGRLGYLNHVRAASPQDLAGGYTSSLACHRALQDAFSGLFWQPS
# Sequence of CDK9/Cyclin T (P50750 whole entry): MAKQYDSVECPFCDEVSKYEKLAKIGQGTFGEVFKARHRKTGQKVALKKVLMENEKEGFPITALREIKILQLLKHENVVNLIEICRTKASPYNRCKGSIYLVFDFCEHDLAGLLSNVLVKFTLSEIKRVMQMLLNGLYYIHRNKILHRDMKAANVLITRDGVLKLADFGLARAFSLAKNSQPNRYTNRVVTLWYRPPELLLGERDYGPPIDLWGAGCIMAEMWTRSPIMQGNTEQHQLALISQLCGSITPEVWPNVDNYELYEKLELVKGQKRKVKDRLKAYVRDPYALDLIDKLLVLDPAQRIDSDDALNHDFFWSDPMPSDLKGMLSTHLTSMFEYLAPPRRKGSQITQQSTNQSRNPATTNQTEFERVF
# Sequence of CDK9/Cyclin T (O60563 whole entry partner): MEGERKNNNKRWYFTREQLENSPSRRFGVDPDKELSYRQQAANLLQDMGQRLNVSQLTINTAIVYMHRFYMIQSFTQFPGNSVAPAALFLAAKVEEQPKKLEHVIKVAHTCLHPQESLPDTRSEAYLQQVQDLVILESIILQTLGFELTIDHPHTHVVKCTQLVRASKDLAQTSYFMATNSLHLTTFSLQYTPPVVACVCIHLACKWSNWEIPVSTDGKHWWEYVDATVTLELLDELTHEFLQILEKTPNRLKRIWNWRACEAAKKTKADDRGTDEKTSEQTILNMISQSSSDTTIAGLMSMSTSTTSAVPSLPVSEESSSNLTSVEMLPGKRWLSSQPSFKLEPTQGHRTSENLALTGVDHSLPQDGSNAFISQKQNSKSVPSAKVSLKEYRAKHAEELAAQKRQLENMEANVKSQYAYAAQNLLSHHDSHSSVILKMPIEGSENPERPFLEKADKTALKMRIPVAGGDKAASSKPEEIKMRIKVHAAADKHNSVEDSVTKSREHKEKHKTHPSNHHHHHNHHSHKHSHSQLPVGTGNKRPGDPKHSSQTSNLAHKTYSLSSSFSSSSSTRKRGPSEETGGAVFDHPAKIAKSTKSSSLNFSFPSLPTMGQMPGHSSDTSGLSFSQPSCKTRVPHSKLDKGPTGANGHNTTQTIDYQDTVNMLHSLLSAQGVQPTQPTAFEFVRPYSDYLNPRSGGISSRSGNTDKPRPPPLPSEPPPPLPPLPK
# Sequence of CDK5/p35 (Q00535 whole entry): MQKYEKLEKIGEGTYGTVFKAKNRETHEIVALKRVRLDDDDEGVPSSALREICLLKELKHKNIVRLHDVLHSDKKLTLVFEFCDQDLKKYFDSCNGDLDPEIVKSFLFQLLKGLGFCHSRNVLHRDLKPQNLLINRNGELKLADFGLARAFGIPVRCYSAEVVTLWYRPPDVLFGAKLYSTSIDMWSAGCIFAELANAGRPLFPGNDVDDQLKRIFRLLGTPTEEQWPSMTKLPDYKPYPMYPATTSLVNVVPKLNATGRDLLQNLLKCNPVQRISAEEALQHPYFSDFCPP
# Sequence of CDK5/p35 (Q15078 whole entry partner): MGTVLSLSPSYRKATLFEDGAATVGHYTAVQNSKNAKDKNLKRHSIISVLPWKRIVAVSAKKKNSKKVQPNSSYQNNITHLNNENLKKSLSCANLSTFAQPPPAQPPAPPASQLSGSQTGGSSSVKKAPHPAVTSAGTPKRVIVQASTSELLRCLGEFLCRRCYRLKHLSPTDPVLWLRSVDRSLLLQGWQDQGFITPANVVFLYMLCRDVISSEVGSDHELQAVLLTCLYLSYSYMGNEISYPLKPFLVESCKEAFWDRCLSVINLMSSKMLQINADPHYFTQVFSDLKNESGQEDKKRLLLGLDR
# Sequence of CDK5/p25 (Q00535 whole entry): as the sequence (Q00535 whole entry) above
# Sequence of CDK5/p25 (Q15078 99-307 partner limits assumed): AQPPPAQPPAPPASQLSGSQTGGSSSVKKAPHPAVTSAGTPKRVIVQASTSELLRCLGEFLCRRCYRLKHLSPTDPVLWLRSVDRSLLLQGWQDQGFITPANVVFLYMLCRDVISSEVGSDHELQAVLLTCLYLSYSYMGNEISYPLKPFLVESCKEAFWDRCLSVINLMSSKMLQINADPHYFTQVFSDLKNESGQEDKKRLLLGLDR
# Sequence of CDK1/Cyclin B1 (P06493 whole entry): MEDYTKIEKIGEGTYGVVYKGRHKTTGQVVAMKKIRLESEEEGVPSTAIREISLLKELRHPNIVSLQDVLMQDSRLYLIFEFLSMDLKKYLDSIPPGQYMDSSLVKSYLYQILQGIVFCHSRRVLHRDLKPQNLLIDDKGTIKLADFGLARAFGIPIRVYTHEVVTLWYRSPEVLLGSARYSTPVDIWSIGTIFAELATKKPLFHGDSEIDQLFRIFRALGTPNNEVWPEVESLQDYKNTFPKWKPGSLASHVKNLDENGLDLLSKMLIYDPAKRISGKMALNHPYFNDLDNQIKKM
# Sequence of CDK1/Cyclin B1 (P14635 whole entry partner): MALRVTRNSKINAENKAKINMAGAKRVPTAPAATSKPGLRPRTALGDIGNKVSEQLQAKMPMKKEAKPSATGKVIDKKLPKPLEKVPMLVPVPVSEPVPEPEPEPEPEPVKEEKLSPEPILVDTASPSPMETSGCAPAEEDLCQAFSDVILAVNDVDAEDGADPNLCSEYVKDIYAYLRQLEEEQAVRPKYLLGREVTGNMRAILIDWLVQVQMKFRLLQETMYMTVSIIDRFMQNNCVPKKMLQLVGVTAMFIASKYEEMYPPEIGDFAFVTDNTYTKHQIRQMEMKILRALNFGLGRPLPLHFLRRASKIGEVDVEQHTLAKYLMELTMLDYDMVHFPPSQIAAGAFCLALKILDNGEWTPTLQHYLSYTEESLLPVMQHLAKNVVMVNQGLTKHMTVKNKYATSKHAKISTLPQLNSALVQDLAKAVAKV
Compound,IC50 [1],IC50 [2],IC50 [3],IC50 [4],IC50 [5],IC50 [6],IC50 [7],IC50 [8],IC50 [9],IC50 [10]
"S=C1NCC2(CCCCC2)n2c1cc1cnc(N[C@H]3CCCNC3)nc12 [Compound 40, (S)-2′-(piperidin-3-ylamino)-7′,8′-dihydro-6′H-spiro[cyclohexane-1,9′-pyrazino[1′,2′:1,5]pyrrolo[2,3-d]pyrimidine]-6′-thione]",61 nM,100 nM,110 nM,17 nM,23 nM,51 nM,40 nM,79 nM,10 nM,3.4 nM
"C[C@H]1CC[C@@H](Nc2ncc3cc4n(c3n2)C2(CCCCC2)CN=C4)CC1 [Compound 53, N-((1s,4s)-4-methylcyclohexyl)-8′H-spiro[cyclohexane-1,9′-pyrazino[1′,2′:1,5]pyrrolo[2,3-d]pyrimidin]-2′-amine]",1500 nM,670 nM,480 nM,850 nM,2900 nM,1500 nM,1500 nM,9000 nM,4600 nM,890 nM
"S=C1NCC2(CCCCC2)n2c1cc1cnc(N[C@@H]3CCCNC3)nc12 [Compound 41, (R)-2′-(piperidin-3-ylamino)-7′,8′-dihydro-6′H-spiro[cyclohexane-1,9′-pyrazino[1′,2′:1,5]pyrrolo[2,3-d]pyrimidine]-6′-thione]",330 nM,150 nM,310 nM,210 nM,6.7 nM,1100 nM,970 nM,23 nM,85 nM,4.3 nM
"O=C(C[C@H]1CCCN1)Nc1ncc2cc3n(c2n1)C1(CCCCC1)CNC3=O [Compound 37, (R)-N-(6′-oxo-7′,8′-dihydro-6′H-spiro[cyclohexane-1,9′-pyrazino[1′,2′:1,5]pyrrolo[2,3-d]pyrimidin]-2′-yl)-2-(pyrrolidin-2-yl)acetamide]",27000 nM,16000 nM,29000 nM,38000 nM,6300 nM,28000 nM,31000 nM,14000 nM,17000 nM,120 nM
"O=C1NCC2(CCCCC2)n2c1cc1cnc(N[C@H]3CC[C@H](Nc4ncc(F)cn4)CC3)nc12 [Compound 19, 2′-(((1,4-trans)-4-((5-fluoropyrimidin-2-yl)amino)cyclohexyl)-12-azaneyl)-7′,8′-dihydro-6′H-spiro[cyclohexane-1,9′-pyrazino[1′,2′:1,5]pyrrolo[2,3-d]pyrimidin]-6′-one]",96 nM,71 nM,110 nM,220 nM,8.6 nM,120 nM,120 nM,75 nM,740 nM,2.1 nM
"C1=NCC2(CCCCC2)n2c1cc1cnc(N[C@H]3CCCNC3)nc12 [Compound 50, (S)-N-(piperidin-3-yl)-8′H-spiro[cyclohexane-1,9′-pyrazino[1′,2′:1,5]pyrrolo[2,3-d]pyrimidin]-2′-amine]",280 nM,280 nM,190 nM,64 nM,310 nM,180 nM,190 nM,1100 nM,42 nM,23 nM
"O=C1NCC2(CCCCC2)n2c1cc1cnc(NC(=O)[C@@H]3CCCNC3)nc12 [Compound 11, (R)-N-(6′-oxo-7′,8′-dihydro-6′H-spiro[cyclohexane-1,9′-pyrazino[1′,2′:1,5]pyrrolo[2,3-d]pyrimidin]-2′-yl)piperidine-3-carboxamide]",4400 nM,3100 nM,13000 nM,7200 nM,2900 nM,30000 nM,35000 nM,28000 nM,13000 nM,5.5 nM
"C[C@H]1NCCC[C@H]1C(=O)Nc1ncc2cc3n(c2n1)C1(CCCCC1)CNC3=O [Compound 30, (2R,3R)-2-methyl-N-(6′-oxo-7′,8′-dihydro-6′H-spiro[cyclohexane-1,9′-pyrazino[1′,2′:1,5]pyrrolo[2,3-d]pyrimidin]-2′-yl)piperidine-3-carboxamide]",3800 nM,1900 nM,5400 nM,6900 nM,1500 nM,8000 nM,8400 nM,15000 nM,4500 nM,45 nM
"O=C1NCC2(CCCCC2)n2c1cc1cnc(N[C@H]3CC[C@H](NCc4cccnc4)CC3)nc12 [Compound 21, 2′-(((1,4-trans)-4-((pyridin-3-ylmethyl)amino)cyclohexyl)amino)-7′,8′-dihydro-6′H-spiro[cyclohexane-1,9′-pyrazino[1′,2′:1,5]pyrrolo[2,3-d]pyrimidin]-6′-one]",310 nM,140 nM,220 nM,290 nM,14 nM,350 nM,320 nM,71 nM,110 nM,2.1 nM
